Among the data in PubChem BioAssay (NCI) are GI50 and TGI values, retold here.

Some test systems named below: KM12 colon; HT29 colon; SNB-19 CNS; MDA-MB-231 breast; ACHN renal; A549 NSCLC; UO-31 renal; SN12C renal; TK-10 renal; HCT-116 colon.
Common to all, as to assay: NCI tumour cell line growth inhibition, 48 h

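Each compound was tested at five concentrations against cells in 96-well plates for 48 hours. Abbreviation: GI50, concentration required for 50% inhibition of growth. Definition used: TGI = concentration required for complete inhibition of growth.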

On to `COc1cc(OC)cc(-c2n/c(=C\c3c(O)[nH]c4ccc(Cl)cc34)cc3c2=Nc2ccccc2-3)c1`, for which the GI50 in the assay on KM12 colon is 3.95 µM; with HT29 colon it was 2.72 µM; in the assay with SNB-19 CNS, 3.54 µM; in the assay on MDA-MB-231 breast, 2.84 µM; in the assay on ACHN renal, 5.37 µM; in the assay with A549 NSCLC it was 3.21 µM. For the same compound, the GI50 in the assay with UO-31 renal was 12.5 µM; in the assay on SN12C renal it was 3.73 µM; with TK-10 renal, 3.79 µM; in the assay on HCT-116 colon, 1.9 µM. Moreover, the TGI in the assay with KM12 colon was determined as 14.1 µM; in the assay on HT29 colon it was 6.22 µM; with SNB-19 CNS it was 16.1 µM; in the assay on MDA-MB-231 breast, 13.4 µM; with ACHN renal it was 20.7 µM; in the assay on A549 NSCLC, 11.1 µM. The TGI in the assay on UO-31 renal came out at 29.2 µM; in the assay on SN12C renal it was 17.2 µM; with TK-10 renal, 8.96 µM; in the assay on HCT-116 colon, 3.43 µM.
Consider `OC(CCN1CCN(CCOC(c2ccccc2)c2ccccc2)CC1)c1ccc(Br)cc1` (stereo not given), for which the TGI in the assay on KM12 colon was determined as 36.9 µM; with HT29 colon, 16.5 µM; with SNB-19 CNS, 30.3 µM; with MDA-MB-231 breast, 25.3 µM; in the assay on ACHN renal, 22.9 µM; in the assay with A549 NSCLC it was 30.5 µM. Also, the TGI in the assay with UO-31 renal was found to be 4.77 µM; in the assay with SN12C renal, 25.2 µM; with TK-10 renal, 26.9 µM; with HCT-116 colon it was 23.3 µM.
As for `COc1ccc2c(c1)CC1Cc3ccccc3CCN1C2` (stereo not given), the TGI was more than 100 µM in the assay with KM12 colon; more than 100 µM with HT29 colon; more than 100 µM in the assay with SNB-19 CNS; 63.6 µM in the assay on MDA-MB-231 breast; more than 100 µM in the assay with ACHN renal; more than 100 µM in the assay with A549 NSCLC. Also, the TGI in the assay on UO-31 renal, with SN12C renal, in the assay with TK-10 renal and in the assay with HCT-116 colon was more than 100 µM in each case.
For the compound `O=C(N/N=C/c1ccc(Cl)cc1)c1cc(I)cc(I)c1O`, the TGI in the assay on KM12 colon, in the assay with HT29 colon, with SNB-19 CNS, in the assay with MDA-MB-231 breast, in the assay on ACHN renal and in the assay with A549 NSCLC was more than 100 µM throughout. In addition, the TGI in the assay with UO-31 renal, with SN12C renal, with TK-10 renal and with HCT-116 colon was more than 100 µM in each case.
`Nc1ccc(-c2nc3ccc(F)cc3s2)cc1`: the TGI in the assay on KM12 colon was 64.3 µM; in the assay with HT29 colon, more than 100 µM; in the assay on SNB-19 CNS, more than 100 µM; in the assay with MDA-MB-231 breast, 64 µM; in the assay on ACHN renal it was 66.6 µM; in the assay with A549 NSCLC, more than 100 µM. In addition, the TGI is more than 100 µM in the assay on UO-31 renal, more than 100 µM with SN12C renal, 78.8 µM in the assay with TK-10 renal and more than 100 µM in the assay on HCT-116 colon.
Turning to `CN(CCc1ccc(Cl)c(Cl)c1)CCN(C)CCN1CCCC1`, the TGI stood at 24.8 µM in the assay on KM12 colon; 12.5 µM with HT29 colon; 43.3 µM in the assay with SNB-19 CNS; 23 µM in the assay on MDA-MB-231 breast; 47.2 µM in the assay with ACHN renal; 28.3 µM in the assay on A549 NSCLC. Besides, the TGI in the assay with UO-31 renal is 17.2 µM; in the assay with SN12C renal, 40.2 µM; with TK-10 renal it was 26.7 µM; with HCT-116 colon, 18.7 µM.
On to `COc1cc(/C=C2\Cc3cc(OC)c(OC)cc3C2=O)cc(OC)c1`, for which the TGI in the assay on KM12 colon, in the assay with HT29 colon, with SNB-19 CNS, with MDA-MB-231 breast, in the assay on ACHN renal and in the assay on A549 NSCLC was more than 100 µM throughout. In addition, the TGI with UO-31 renal was more than 100 µM; in the assay on SN12C renal, more than 100 µM; with TK-10 renal it was more than 100 µM; with HCT-116 colon it was more than 52.2 µM.
Turning to `CC(C)(C)c1cc(C(=O)/C=C/c2ccn[nH]2)cc(C(C)(C)C)c1O`, the TGI in the assay on KM12 colon stood at 5.35 µM; with HT29 colon, 6.59 µM; in the assay with SNB-19 CNS it was 9.91 µM; in the assay with MDA-MB-231 breast, 3.97 µM; in the assay on ACHN renal, 3.03 µM; in the assay with A549 NSCLC, 9.8 µM. Besides, the TGI with UO-31 renal amounted to 3.23 µM; in the assay with SN12C renal it was 3.6 µM; in the assay on TK-10 renal, 2.92 µM; in the assay with HCT-116 colon, 6.11 µM.
As for `c1csc(-c2csc(-c3ccsc3)c2)c1`, the TGI in the assay on KM12 colon, in the assay on HT29 colon, with SNB-19 CNS, in the assay on MDA-MB-231 breast, with ACHN renal and in the assay on A549 NSCLC was more than 100 µM throughout. Further, the TGI in the assay with UO-31 renal, in the assay with SN12C renal, in the assay with TK-10 renal and in the assay on HCT-116 colon was more than 100 µM throughout.
`CNC(=S)N/N=C(\C)c1nc2ncccc2[nH]1`: the TGI in the assay with KM12 colon, in the assay with HT29 colon, in the assay on SNB-19 CNS, with MDA-MB-231 breast, in the assay on ACHN renal and in the assay with A549 NSCLC was more than 100 µM throughout. Besides, the TGI is 40.6 µM with UO-31 renal, more than 100 µM in the assay on SN12C renal, more than 96.1 µM in the assay with TK-10 renal and more than 100 µM with HCT-116 colon.
Regarding `O=C1NC2CCCCC2N=C1/C(C(=O)c1ccccc1)=C(\O)c1ccccc1` (stereo not given), the TGI was more than 100 µM with KM12 colon; more than 100 µM in the assay with HT29 colon; more than 100 µM in the assay on SNB-19 CNS; 83 µM in the assay with MDA-MB-231 breast; more than 100 µM in the assay on ACHN renal; more than 100 µM with A549 NSCLC. Also, the TGI is 78.7 µM with UO-31 renal, more than 100 µM in the assay on SN12C renal, more than 100 µM in the assay with TK-10 renal and more than 100 µM with HCT-116 colon.
Take `O/N=C1\CCc2nonc2\C1=N/Nc1ccccc1`: the TGI with KM12 colon, with HT29 colon, in the assay on SNB-19 CNS, with MDA-MB-231 breast, with ACHN renal and with A549 NSCLC was more than 100 µM each time. Moreover, the TGI in the assay on UO-31 renal, in the assay on SN12C renal, in the assay with TK-10 renal and with HCT-116 colon was more than 100 µM each time.
Turning to `N=C(N)SCCCN`, the TGI with KM12 colon was 59.6 µM; in the assay on HT29 colon it was 62.3 µM; with SNB-19 CNS, more than 82.7 µM; in the assay on MDA-MB-231 breast, 12.1 µM; in the assay with ACHN renal, 26.5 µM; in the assay with A549 NSCLC, more than 100 µM. Besides, the TGI is 37.5 µM in the assay with UO-31 renal, 69.8 µM in the assay with SN12C renal, 20.7 µM with TK-10 renal and 30.7 µM with HCT-116 colon.
